Patent US20240228491A1, “METHIONINE ADENOSYLTRANSFERASE INHIBITOR, PREPARATION METHOD THEREFOR AND APPLICATION THEREOF” (SCINNOHUB PHARMACEUTICAL CO., LTD., priority 2021, published 2024)
Read-outs that look alike come from different tables or passages of the source.

Assays:
KP-4 cells = assay: Inhibitory activity test of KP-4 cells; assay type: cell-based; settings: Homo sapiens, 144 h incubation, read-out: KP-4 cell inhibitory activity IC50
Protocol: On day 1, cell seeding: after digestion of the cells with trypsin, the cells were resuspended to 1*10^4/mL with RPMI1640 complete medium (HyClone Company, Cat. No. SH30809.01) supplemented with 10% FBS (Gibco, 10099141C), mixed evenly, and added into the 96-well plate at 100 μL/well. The plate was put back to the incubator for the adherent growth of cells. On day 2, the addition of the compounds to be tested: 100 μL of the complete medium containing the compounds (the concentration of the compound in the medium was formulated as follows: 3-fold gradient dilution from 60 μM, 10 concentration gradients in total) was added, incubated for 144 hours at 37° C., 5% CO2. On day 8, the cell culture plates were taken out from incubator and equilibrated to room temperature, excess medium was pipetted from the wells so that 50 μL of supernatant was retained, and 50 μL of CellCounting-Lite 2.0 (Nanjing Vazyme Biotech Co., Ltd., Cat. No. DD1101) reagent was added per well, and the cells were fully lysed by shaking at room temperature for 10 min, and incubated for 5 min to detect the fluorescence intensity.
(§1) % Inhibition=100−(signal of the well with the compound to be tested−signal of the well with only medium and free of cells)/(signal of the well with cells but without addition of the compound−signal of the well with only medium and free of cells)×100.
(§2) The log value of concentration was used as the X-axis and % Inhibition was used as the Y-axis, so as to fit the dose-effect curve and calculate the IC50 value using nonlinear regression (dose response−variable slope) in the analysis software GraphPad Prism 8.

HCT116 MTAP-/- cells = assay: Activity test of HCT116 MTAP gene homozygous deletion cells (CellTiter-Glo); assay type: cell-based; settings: Homo sapiens, HCT-116, 120 h incubation, read-out: HCT116 MTAP-/- Cell IC50
Protocol: On day 1, cell seeding: after digestion of the cells with trypsin, the cells were resuspended to the desired density with the complete medium (RPMI-1640 supplemented with 10% FBS; the brand of FBS is EXCELL, Cat. No. FND500; the brand of RPMI-1640 is ATCC, Cat. No. 30-2001), mixed evenly, and added into the 96-well plate at 100 μL/well with a cell density of 1000-3000 cells per well. The plate was put back to the incubator for the adherent growth of cells. On day 2, the addition of the compounds to be tested: before the addition of the compounds, the cells were starved with serum-free medium for 4 h, then the complete medium containing the corresponding concentration of compounds was added thereto, and the cells were incubated at 37° C., 5% CO2 for 120 h. On day 7, the cell culture plates were taken out from incubator and equilibrated to room temperature. 50 μL of CellTiter-Glo (Promega Company, Cat. No. G7571) reagent was added per well, and the cells were fully lysed by shaking at room temperature for 2 min, and then incubated for another 60 min to detect the fluorescence intensity. Calculation formula:
as §1
The fitting dose-effect curve of the analysis software GraphPad Prism 5 was used to give IC50 values of the individual compounds against cellular activity.

DOHH-2 cells = assay: Inhibitory activity test of DOHH-2 cells; assay type: cell-based; settings: Homo sapiens, 120 h incubation, CellTiter-Glo, read-out: DOHH-2 cell inhibitory activity IC50
Protocol: On day 1, cell seeding: cells were resuspended to the desired density with DMEM complete medium (Gibico, Cat. No. 10569010) supplemented with 10% FBS (Gibco, 10099141C), mixed evenly, and added into the 384-well plate at 30 μL/well with a cell density of 800/well. The compounds to be tested were added as follows: 30 nL of DMSO solution containing the compound (the concentration of the compound in which was formulated as: 3-fold gradient dilution from 10 mM, 10 concentration points in total) was added, incubated for 120 h at 37° C., 5% CO2. On day 6, the cells treated with compounds were removed and equilibrated to room temperature, 30 μL of CellTiter-Glo (Promega company, Cat. No. G7573) reagent was added per well, and the cells were fully lysed by shaking at room temperature, and then incubated in dark at 37° C., 5% CO2 for 30 min, to detect the fluorescence intensity.
% Inhibition=100−(signal of the well with the compound to be tested−signal of the well with only medium and free of cells)/(signal of the well with cells but without the addition of the compound−signal of the well with only medium and free of cells)×100.
as §2

[1] = In vivo pharmacokinetic study in SD rats; settings: SD rat, plasma; for AUC(0-t): read-out: Area under curve AUC(0-t); for half-life: read-out: Half life T1/2 (converted); for Cmax: read-out: Maximal concentration Cmax
Protocol: Species: SD rat. Source: Charles River Laboratory Animal Technology Co., Ltd. Number: 3 rats per dosage group.
(§3) 1.1 An appropriate amount of the test sample was accurately weighed, into which 5% DMSO, 10% polyethylene glycol-15 hydroxystearate, 85% normal saline (all in volume percent) were added sequentially, and were fully mixed via vortex or ultrasound, to obtain the dosing solution with a test sample concentration of 0.2 mg/mL for intravenous administration.
as §3, with “1.2” for “1.1”, “0.5” for “0.2”, “oral gavage” for “intravenous”
Weighing was performed before administration, and the administration amount was calculated according to the body weight. The drug was administered orally by gavage or intravenously.
On the day of the test, 100 μL of blood was collected via the jugular sinus at each set time point, and the whole blood samples were placed in anticoagulation tubes containing EDTA-K2. Whole blood samples were centrifuged at 1500 g for 10 min to separate the plasma, and the upper plasma samples were collected into sample tubes. Biological samples were stored at −40° C. to −20° C. for analysis.
According to the requirements of SOP-BA-002 (Liquid Mass Spectrometry for biological sample analysis) of Suzhou 3D BioOptima New Drug Development Co., Ltd., an LC-MS/MS analytical method was established to determine the concentrations of compounds in rat plasma, and used to determine the concentrations of compounds in the biological samples obtained in this experiment.
Pharmacokinetic parameters were calculated using the non-compartment model of Pharsight Phoenix 8.0.

Compound `Nc1c(-c2ccc3nccnc3c2)c(=O)n(-c2ccc(Cl)cc2)c2nc(C(F)(F)F)ccc12` [Example 36] has an IC50 (KP-4 cells) of 360 nM, an IC50 (HCT116 MTAP-/- cells) of 7.43 nM and an IC50 (DOHH-2 cells) of 7 nM. The “Apparent clearance rate Cl” value ([1]; IV 1 mg/kg) was 0.0447 L/h/kg, the AUC(0-t) ([1]; IV 1 mg/kg) was 17.6 µg·h/mL and the half-life ([1]; IV 1 mg/kg) was 5.8 h. For the same compound, the Cmax ([1]; IV 1 mg/kg) was 2.71 µg/mL, the AUC(0-t) ([1]; PO 5 mg/kg) was 67.1 µg·h/mL and the half-life ([1]; PO 5 mg/kg) was 9.14 h. For the same compound, the Cmax ([1]; PO 5 mg/kg) was 4.14 µg/mL and the bioavailability ([1]; PO 5 mg/kg vs IV 1 mg/kg, read-out: Bioavailability F %) was 76.3%.
